Active and inactive are the calls of the source.
What was measured:
[1] = molecular target: Eukaryotic translation initiation factor 4E (Mus musculus, UniProt P63073); test: eIF4E–eIF4G protein interaction inhibitors, dose response, biochemical, TR-FRET (AID 855); assay type: functional;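 note: potency for disrupting eIF4E binding to eIF4GI seen as loss of FRET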
[2] = A cytotoxicity screen of small molecule inhibitors of the PhoP region in Salmonella typhi identified in the primary screen. [Related pubchem assays: 1850, 1864, 1985 ]; assay type: functional
[3] = inhibitors of Vif binding to APOBEC3G peptide, primary screen, biochemical, TR-FRET, GST-Vif 1-94, biotin-A3G peptide, dose response retest (AID 1117319); assay type: functional;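 note: TR-FRET signal of purified GST-Vif binding a biotinylated A3G peptide; inhibitors lower the FRET signal by blocking Vif and A3G binding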
Troponin, cardiac muscle = Troponin, cardiac muscle (Homo sapiens, UniProt P19429+P45379+P63316); test: Fluorescence-based biochemical high throughput dose response assay for activators of the calcium sensitivity of cardiac Regulated Thin Filaments (RTF). [Related pubchem assays (depositor defined):AID493008, AID493018, AID504382, AID504383]; assay type: protein-complex assay
[4] = molecular target: Nucleotide-binding oligomerization domain-containing protein 2 (Homo sapiens, UniProt Q9HC29); test: NOD2 signaling inhibitors, cell-based, luminescence, uHTS, HEK293 (AID 1566); assay type: functional
HEK293 [5] = test: cells; assay type: functional, cell-based; settings: Homo sapiens
HEK293 [6] = test: cells; assay type: functional, cell-based; settings: Homo sapiens; remark: listed apart in the source
HEK293 [7] = test: NOD1 signaling inhibitors, primary screen, cell-based, luminescence, uHTS (AID 1578); assay type: functional; settings: Homo sapiens
HEK293 [8] = test: cells; assay type: functional, cell-based; settings: Homo sapiens; remark: listed apart in the source
HEK293 [9] = test: NOD2 signaling inhibitors in MDP-stimulated cells, cell-based, uHTS, luminescence (AID 2001); assay type: functional; settings: Homo sapiens
Beta-galactosidase = Beta-galactosidase (Escherichia coli, UniProt Q8VNN2); test: beta-galactosidase enzyme inhibitors and activators, dose response, artefact control for CCR6 antagonist project, biochemical, E. coli enzyme, set 3 (AID 504712); assay type: functional
[10] = Luminescence Cell-Based Dose Retest to Confirm Inhibitors of Cancer Stem Cells. [Related pubchem assays (depositor defined):AID2717, AID2721]; assay type: functional; settings: Homo sapiens
[11] = molecular target: DNA dC->dU-editing enzyme APOBEC-3G (Homo sapiens, UniProt Q9HC16); test: Dose Response confirmation of small molecule APOBEC3G DNA Deaminase Inhibitors via a fluorescence-based single-stranded DNA deaminase assay. [Related pubchem assays (depositor defined):AID493012, AID493028]; assay type: functional
[12] = molecular target: Heat shock protein HSP 90-alpha (Homo sapiens, UniProt P07900); assay type: functional, organism-based
Coagulation factor XII = molecular target: T1, Coagulation factor XII (Homo sapiens, UniProt P00748); assay type: functional;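 note: activated factor XIIa alpha cleaving a fluorogenic AMC peptide substrate; inhibitor potency from loss of enzyme activity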
T1 sequence (P00748 whole entry): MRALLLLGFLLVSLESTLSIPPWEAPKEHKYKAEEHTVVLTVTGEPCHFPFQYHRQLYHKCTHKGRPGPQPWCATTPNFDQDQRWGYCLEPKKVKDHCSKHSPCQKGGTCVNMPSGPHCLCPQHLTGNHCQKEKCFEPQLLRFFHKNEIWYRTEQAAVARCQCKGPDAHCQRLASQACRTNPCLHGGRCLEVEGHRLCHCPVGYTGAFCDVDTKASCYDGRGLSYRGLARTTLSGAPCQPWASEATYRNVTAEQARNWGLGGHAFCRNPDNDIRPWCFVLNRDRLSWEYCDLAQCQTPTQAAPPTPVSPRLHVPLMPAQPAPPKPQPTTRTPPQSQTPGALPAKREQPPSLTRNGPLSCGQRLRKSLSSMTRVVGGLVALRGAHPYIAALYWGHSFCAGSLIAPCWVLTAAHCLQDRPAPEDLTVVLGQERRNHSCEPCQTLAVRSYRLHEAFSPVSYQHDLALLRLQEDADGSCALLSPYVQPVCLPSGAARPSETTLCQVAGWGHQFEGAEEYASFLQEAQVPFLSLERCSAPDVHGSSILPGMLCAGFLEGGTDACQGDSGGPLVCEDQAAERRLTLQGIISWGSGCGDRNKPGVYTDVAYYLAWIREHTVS

cells = assay type: functional
[13] = LGR2 antagonists, dose response, cell-based, HEK293, CRE-luciferase reporter, cherry pick, set 2 (AID 743343); assay type: functional;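 note: transfected cells were stimulated with diluted bursicon conditioned medium after compound addition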
[14] = MC4R antagonists, dose response, counter-screen for LGR2 antagonist project, cell-based, plate reader, cherry pick (AID 743444); assay type: functional;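 note: transfected HEK 293 cells stimulated with alpha-MSH peptide; potency of inhibitors of the alpha-MSH evoked signal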
[15] = M. tuberculosis H37Rv growth inhibitors, H37Rv strain (AID 1626); assay type: functional

In the case of `O=C1c2ccccc2C(O)N1Cc1ccccc1Cl` (configuration not stated), the IC50 [1] is reported as > 64 µM (inactive).

With `CCn1c(=N)n(CC(=O)c2ccc(OC)cc2)c2ccccc21` the EC50 [2] was > 50 µM (active) and the IC50 [3] was > 100 µM (active).

With `CCN(CC)C(=S)SCC(=O)c1c(C)[nH]c2ccccc12` the EC50 (Troponin, cardiac muscle) was > 71.5 µM (inactive).

In the case of `CCCCn1c(SCC(=O)N2CCN(c3ccccc3)CC2)nc2ccsc2c1=O`, the EC50 [4] is reported as 4.06 µM (active), the IC50 (HEK293 [5]) is reported as 11.5 µM (active) and the IC50 (HEK293 [6]) is reported as > 20 µM (inactive). The EC50 (HEK293 [7]) was 9.68 µM (active), the IC50 (HEK293 [8]) was > 20 µM (inactive) and the IC50 (HEK293 [9]) was 8.34 µM (active).

For `CCOC(=O)/C=C/C(=O)Nc1cccc([N+](=O)[O-])c1`, the IC50 (Beta-galactosidase) was > 66.6 µM (inactive), the AC50 [10] was 5.87 µM (active) and the IC50 [11] was 11 µM (active). For the same molecule, the AC50 [12] was 3.97 µM (active).

In the case of `CC(C)CNC(=S)NC(=O)c1ccccc1Cl`, the EC50 (Troponin, cardiac muscle) is reported as > 71.4 µM (inactive).

In the case of `COC(=O)c1ccc(NCC(=O)Nc2cc(C)cc(C)c2)cc1`, the IC50 (Coagulation factor XII) is reported as > 50 µM (inactive).

In the case of `O=C(COc1ccc2ccccc2c1)Nc1nccs1`, the IC50 (cells) is reported as 22.3 µM (active), the AC50 [13] is reported as 7.4 µM (active) and the EC50 [2] is reported as > 50 µM (active). The AC50 [14] was 18 µM (active) and the IC50 [15] was > 100 µM (active).

With `O=[N+]([O-])c1ccc2c(c1)c1ccccc1n2CCO` the IC50 (Coagulation factor XII) was > 50 µM (inactive).

With `O=C(c1n[nH]cc1-c1ccc(Cl)cc1)C1CO1` (configuration not stated) the IC50 (HEK293 [5]) was 4.08 µM (active), the IC50 (HEK293 [6]) was > 20 µM (inactive) and the EC50 (HEK293 [7]) was 19.3 µM (active). For the same molecule, the IC50 (HEK293 [8]) was > 20 µM (inactive) and the IC50 (HEK293 [9]) was 5.72 µM (inactive).

— ChEMBL document CHEMBL1201862, “PubChem BioAssay data set” (2004)
